Laboratory results as given in ChEMBL document CHEMBL1201862, “PubChem BioAssay data set” (2004).
One block for each molecule: values may come before it. Active and inactive are the calls of the source.

What was measured:
[1] = target: Phospholipase D1 (Homo sapiens, UniProt Q13393); experiment: cellular phospholipase D1 inhibition IC50 – cell-based, dose response (AID 602151); format: functional;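 also: cellular PLD1 assay in Calu-1 cells stimulated with PMA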
[2] = target: Phospholipase D2 (Homo sapiens, UniProt O14939); experiment: cellular phospholipase D2 inhibition IC50 – cell-based, dose response (AID 602147); format: functional;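 also: cellular assay in HEK293 cells overexpressing GFP-tagged PLD2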
Sequence of Phospholipase D2 (O14939 whole entry): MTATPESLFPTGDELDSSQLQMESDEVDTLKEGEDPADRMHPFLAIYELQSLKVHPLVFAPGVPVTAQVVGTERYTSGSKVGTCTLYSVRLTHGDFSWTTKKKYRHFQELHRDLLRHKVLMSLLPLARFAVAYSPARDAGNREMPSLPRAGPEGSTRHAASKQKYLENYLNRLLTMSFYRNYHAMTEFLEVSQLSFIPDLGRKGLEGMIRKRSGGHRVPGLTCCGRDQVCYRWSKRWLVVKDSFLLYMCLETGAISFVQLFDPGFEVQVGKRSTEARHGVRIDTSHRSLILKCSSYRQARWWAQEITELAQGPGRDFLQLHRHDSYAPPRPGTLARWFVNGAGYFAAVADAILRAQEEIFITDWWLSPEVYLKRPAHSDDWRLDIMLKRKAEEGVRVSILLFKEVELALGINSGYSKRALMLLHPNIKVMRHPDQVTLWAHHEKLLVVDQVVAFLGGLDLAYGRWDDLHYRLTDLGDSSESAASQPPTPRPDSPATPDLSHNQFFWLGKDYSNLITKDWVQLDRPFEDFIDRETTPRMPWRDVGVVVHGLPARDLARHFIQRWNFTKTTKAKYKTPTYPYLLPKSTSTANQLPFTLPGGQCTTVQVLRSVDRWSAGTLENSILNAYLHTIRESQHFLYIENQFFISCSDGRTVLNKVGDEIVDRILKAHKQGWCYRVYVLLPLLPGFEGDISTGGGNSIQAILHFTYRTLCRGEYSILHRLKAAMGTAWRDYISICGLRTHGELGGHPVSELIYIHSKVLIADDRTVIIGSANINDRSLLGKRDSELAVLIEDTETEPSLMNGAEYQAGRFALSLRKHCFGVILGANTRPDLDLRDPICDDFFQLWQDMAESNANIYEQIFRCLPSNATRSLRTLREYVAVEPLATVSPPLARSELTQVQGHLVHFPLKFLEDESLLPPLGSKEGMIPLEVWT

[3] = target: Cysteine protease ATG4B (Homo sapiens, UniProt Q9Y4P1); format: functional;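 also: Fluorescence-based dose-response confirmation assay measuring inhibition of ATG4B activity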
[4] = target: Phospholipase A2 (Homo sapiens, UniProt P04054); format: functional;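 also: confirmatory dose-response counterscreen on phospholipase A2, testing hits that came from an ultra-high-throughput screen for ATG4B inhibitors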
Sequence of Phospholipase A2 (P04054 whole entry, the tested form may be a part): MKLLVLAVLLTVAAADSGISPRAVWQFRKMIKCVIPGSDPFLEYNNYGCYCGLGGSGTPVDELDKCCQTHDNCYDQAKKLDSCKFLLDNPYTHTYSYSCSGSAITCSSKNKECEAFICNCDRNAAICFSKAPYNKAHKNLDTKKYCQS

[5] = target: LIM domain kinase 1 (Homo sapiens, UniProt P53667); experiment: Navigating the Kinome. Panel member name: LIMK1; format: functional
Sequence of LIM domain kinase 1 (P53667 whole entry, the tested form may be a part): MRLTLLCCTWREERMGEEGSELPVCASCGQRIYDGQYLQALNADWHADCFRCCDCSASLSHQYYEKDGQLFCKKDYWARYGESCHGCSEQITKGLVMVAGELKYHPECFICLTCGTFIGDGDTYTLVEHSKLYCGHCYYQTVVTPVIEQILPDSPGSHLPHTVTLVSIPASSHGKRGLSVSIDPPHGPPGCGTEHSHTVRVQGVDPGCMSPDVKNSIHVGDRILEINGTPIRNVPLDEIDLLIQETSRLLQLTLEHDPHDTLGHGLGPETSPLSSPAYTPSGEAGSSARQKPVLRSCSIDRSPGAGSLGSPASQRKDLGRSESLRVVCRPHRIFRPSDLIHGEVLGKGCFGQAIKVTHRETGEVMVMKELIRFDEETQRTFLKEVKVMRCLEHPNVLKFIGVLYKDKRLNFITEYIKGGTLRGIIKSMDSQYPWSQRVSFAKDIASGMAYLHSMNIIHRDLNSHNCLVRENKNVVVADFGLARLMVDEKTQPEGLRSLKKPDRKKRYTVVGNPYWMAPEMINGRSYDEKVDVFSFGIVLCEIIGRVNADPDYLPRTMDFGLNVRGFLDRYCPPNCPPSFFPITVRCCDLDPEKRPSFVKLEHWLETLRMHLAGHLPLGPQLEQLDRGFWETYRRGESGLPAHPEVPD

[6] = target: Serine/threonine-protein kinase Chk1 (Homo sapiens, UniProt O14757); format: functional;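 also: measured as one member of a kinome-wide kinase profiling panel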
Sequence of Serine/threonine-protein kinase Chk1 (O14757 whole entry): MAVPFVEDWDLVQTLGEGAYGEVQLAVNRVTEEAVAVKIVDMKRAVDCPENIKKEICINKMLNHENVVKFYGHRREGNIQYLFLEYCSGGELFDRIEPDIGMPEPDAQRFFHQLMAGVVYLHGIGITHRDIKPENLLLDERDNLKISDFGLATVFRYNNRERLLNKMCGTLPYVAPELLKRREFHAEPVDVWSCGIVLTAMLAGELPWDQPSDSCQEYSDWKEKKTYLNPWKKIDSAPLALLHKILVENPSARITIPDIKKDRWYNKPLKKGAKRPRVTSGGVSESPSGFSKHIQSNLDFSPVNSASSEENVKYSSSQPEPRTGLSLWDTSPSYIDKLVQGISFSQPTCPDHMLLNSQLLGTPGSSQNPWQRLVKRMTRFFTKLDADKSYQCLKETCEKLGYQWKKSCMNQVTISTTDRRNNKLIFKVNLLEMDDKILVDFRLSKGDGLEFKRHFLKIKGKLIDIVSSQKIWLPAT

[7] = target: Dual specificity protein kinase CLK4 (Homo sapiens, UniProt Q9HAZ1); format: functional
Sequence of Dual specificity protein kinase CLK4 (Q9HAZ1 whole entry): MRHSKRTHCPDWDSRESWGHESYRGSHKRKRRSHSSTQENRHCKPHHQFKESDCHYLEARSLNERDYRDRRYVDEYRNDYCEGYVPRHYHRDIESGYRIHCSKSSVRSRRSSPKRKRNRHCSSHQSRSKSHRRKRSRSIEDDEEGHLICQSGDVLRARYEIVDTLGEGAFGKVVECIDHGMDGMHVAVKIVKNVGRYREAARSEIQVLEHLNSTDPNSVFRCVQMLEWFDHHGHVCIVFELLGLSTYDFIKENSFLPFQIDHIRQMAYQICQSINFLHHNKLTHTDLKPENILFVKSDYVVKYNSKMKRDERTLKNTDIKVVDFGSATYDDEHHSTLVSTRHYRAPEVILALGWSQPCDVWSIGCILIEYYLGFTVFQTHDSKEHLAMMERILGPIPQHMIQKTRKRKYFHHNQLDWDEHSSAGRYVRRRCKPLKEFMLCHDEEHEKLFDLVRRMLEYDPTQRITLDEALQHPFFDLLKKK

[8] = target: Dual specificity tyrosine-phosphorylation-regulated kinase 1A (Homo sapiens, UniProt Q13627); format: functional;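 also: measured against DYRK1A as one member of a broad kinome profiling panel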
[9] = target: Serine/threonine-protein kinase pim-1 (Homo sapiens, UniProt P11309); format: functional
Sequence of Serine/threonine-protein kinase pim-1 (P11309 whole entry): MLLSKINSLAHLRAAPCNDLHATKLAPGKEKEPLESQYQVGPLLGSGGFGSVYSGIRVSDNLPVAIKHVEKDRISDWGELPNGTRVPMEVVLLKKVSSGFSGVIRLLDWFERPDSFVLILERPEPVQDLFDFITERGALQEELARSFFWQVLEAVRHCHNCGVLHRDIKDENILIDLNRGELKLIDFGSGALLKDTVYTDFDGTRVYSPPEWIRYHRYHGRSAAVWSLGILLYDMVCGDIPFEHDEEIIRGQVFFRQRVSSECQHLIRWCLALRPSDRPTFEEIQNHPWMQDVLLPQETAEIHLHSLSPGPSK

[10] = target: Mitogen-activated protein kinase kinase kinase kinase 2 (Homo sapiens, UniProt Q12851); format: functional;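 also: measured as one member of a kinome-wide kinase panel, with MAP4K2 as the panel entry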
[11] = target: Hepatocyte growth factor receptor (Homo sapiens, UniProt P08581); format: functional;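 also: kinase panel profiling across the kinome, with MET as the panel member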
[12] = target: Cyclin-dependent kinase 8 (Homo sapiens, UniProt P49336); experiment: Navigating the Kinome. Panel member name: CDK8; format: functional
Sequence of Cyclin-dependent kinase 8 (P49336 whole entry): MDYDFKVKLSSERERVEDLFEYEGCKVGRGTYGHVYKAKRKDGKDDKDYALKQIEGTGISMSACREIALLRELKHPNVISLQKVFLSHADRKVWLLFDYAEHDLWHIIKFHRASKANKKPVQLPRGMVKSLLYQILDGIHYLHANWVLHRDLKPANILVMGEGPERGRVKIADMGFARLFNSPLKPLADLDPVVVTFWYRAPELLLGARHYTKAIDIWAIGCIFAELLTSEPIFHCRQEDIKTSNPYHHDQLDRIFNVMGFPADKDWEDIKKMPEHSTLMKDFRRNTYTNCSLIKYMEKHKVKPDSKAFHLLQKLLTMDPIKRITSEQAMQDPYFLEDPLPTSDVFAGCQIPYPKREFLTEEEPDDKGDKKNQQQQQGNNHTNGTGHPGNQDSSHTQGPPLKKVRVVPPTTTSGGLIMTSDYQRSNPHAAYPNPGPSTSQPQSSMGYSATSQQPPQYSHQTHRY

[13] = target: Dual specificity mitogen-activated protein kinase kinase 2 (Homo sapiens, UniProt P36507); experiment: Navigating the Kinome. Panel member name: MAP2K2; format: functional
Sequence of Dual specificity mitogen-activated protein kinase kinase 2 (P36507 whole entry): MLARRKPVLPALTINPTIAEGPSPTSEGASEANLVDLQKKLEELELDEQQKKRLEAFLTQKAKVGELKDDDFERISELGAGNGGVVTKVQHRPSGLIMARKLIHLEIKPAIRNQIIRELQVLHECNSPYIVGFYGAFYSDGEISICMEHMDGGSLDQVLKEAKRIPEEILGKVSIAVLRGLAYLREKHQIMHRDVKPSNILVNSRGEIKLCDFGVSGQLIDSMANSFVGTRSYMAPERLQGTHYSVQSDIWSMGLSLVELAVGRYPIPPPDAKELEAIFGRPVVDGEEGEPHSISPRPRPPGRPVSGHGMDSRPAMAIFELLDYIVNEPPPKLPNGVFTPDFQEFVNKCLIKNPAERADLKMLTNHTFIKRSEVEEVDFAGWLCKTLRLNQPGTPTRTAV

[14] = Luminescence Cell-Based Dose Response Follow up to Identify Inhibitors of Platelet Dense Granule Release. [Related pubchem assays (depositor defined):AID1663, AID1678, AID2398]; format: functional
[15] = target: Voltage-gated inwardly rectifying potassium channel KCNH2 (Homo sapiens, UniProt Q12809); conditions: Potency;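 also: confirmatory quantitative high-throughput screen measuring inhibition of hERG channel activity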
Sequence of Voltage-gated inwardly rectifying potassium channel KCNH2 (Q12809 whole entry): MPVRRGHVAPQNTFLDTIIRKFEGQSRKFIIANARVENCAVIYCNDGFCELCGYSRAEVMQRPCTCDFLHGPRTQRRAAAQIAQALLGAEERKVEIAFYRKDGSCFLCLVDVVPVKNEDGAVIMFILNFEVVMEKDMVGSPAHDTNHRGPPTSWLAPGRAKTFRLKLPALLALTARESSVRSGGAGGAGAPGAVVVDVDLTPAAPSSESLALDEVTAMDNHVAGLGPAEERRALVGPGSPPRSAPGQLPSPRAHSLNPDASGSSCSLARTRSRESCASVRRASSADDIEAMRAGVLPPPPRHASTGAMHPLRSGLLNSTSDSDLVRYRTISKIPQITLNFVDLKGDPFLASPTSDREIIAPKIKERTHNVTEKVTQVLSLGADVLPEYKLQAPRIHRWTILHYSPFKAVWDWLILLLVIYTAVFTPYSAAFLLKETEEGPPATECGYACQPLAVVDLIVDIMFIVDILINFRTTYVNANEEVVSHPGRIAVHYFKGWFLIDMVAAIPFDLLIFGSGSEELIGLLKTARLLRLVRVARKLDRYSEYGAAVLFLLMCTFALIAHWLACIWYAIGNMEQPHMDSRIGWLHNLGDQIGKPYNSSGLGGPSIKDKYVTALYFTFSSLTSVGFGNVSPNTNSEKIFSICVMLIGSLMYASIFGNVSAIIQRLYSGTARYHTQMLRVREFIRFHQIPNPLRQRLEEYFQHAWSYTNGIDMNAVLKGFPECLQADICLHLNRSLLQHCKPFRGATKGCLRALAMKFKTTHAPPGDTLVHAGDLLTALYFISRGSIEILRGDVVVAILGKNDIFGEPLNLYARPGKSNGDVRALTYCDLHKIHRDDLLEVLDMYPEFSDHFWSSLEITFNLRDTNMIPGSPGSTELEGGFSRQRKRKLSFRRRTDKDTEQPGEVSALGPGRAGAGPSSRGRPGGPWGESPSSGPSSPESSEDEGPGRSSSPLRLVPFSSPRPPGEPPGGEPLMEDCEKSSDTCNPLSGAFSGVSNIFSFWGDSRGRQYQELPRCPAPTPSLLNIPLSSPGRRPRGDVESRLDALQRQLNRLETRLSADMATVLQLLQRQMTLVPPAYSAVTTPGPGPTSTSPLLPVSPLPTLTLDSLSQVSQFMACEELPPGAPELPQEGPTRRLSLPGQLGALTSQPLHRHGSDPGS

[16] = target: Interleukin-1 receptor-associated kinase 4 (Homo sapiens, UniProt Q9NWZ3); format: functional
[17] = target: Cyclin-dependent kinase 1 (Homo sapiens, UniProt P06493); format: functional;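 also: Kinome-wide panel profiling, with the target listed as panel member CDC2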
[18] = test system: HeLa; experiment: ATP-based viability loss in HeLa cells – cell-based, CellTiter-Glo luminescence, cherry-pick samples, cytotoxicity control for MITF activator project, dose response (AID 540259); format: functional; conditions: Homo sapiens

Structure (SMILES): CC(C)[C@@H](CN1CCC2(CC1)C(=O)NCN2c1ccccc1)NC(=O)c1cc2cc(F)ccc2[nH]1
- IC50 [1]: 0.026 µM (active)
- IC50 [2]: 0.48 µM (active)

- IC50 [3]: 15.7 µM (active)
- IC50 [4]: 14.9 µM (active)
Structure (SMILES): O=C(O)CCn1cc(/C=C\C(=O)c2ccc(Cl)cc2)c(-c2cccc(Br)c2)n1

- Ki [5]: 50.1 µM (active)
- Ki [6]: 39.8 µM (active)
- Ki [7]: 39.8 µM (active)
- Ki [8]: 63.1 µM (active)
Structure (SMILES): O=C(O)c1cnc2sccn2c1=O

- Ki [9]: 2 µM (active)
- Ki [10]: 2.51 µM (active)
- Ki [11]: 1.26 µM (active)
- Ki [12]: 3.16 µM (active)
- Ki [13]: 3.16 µM (active)
Structure (SMILES): Oc1ccc(Cl)cc1C1=NNC(c2ccc3c(c2)OCCO3)C1 (stereo not drawn)

Structure (SMILES): Cn1c(N)c(C#N)c(-c2ccccc2)c(C#N)c1=O
- EC50 [14]: 1.74 µM (active)

Structure (SMILES): CCCCN1CCC(n2c(=O)[nH]c3ccccc32)CC1
- AC50 [15]: 11.2 µM (inconclusive)

- Ki [16]: 3.98 µM (active)
- Ki [17]: 7.94 µM (active)
Structure (SMILES): CS(=O)(=O)Nc1ccccc1-c1ccc2c(c1)Nc1ccccc1NC2=O

Structure (SMILES): Cc1cccc(-c2cc(N)n(-c3ccccc3)n2)c1
- AC50 [18]: > 350 µM (inactive)
